What was measured:
[1] = system: parvalbumin-positive interneurons; assay: Spontaneous IPSC recordings from parvalbumin-positive interneurons in acute hippocampal slices; type: cell-based; conditions: bath-applied, 10 μM; acute mouse hippocampal slices, area CA1
Description: Mice were anesthetized and decapitated, after which the brain was quickly removed and placed into oxygenated, ice-cold, high-sucrose artificial cerebrospinal fluid (hsACSF), containing (in mM): 150 sucrose, 50 NaCl, 25 NaHCO3, 10 dextrose, 2.5 KCl, 1 NaH2PO4·H2O, 0.5 CaCl2), and 7 MgCl2. After 2 min in hsACSF, the brain was blocked, glued to the stage of a Vibratome (VTS1000; Leica, Bannockburn, IL), and cut into 300-μm horizontal brain slices containing hippocampus. Slices were then placed in a chamber containing ACSF (in mM: 124 NaCl, 3 KCl, 1.25 NaH2PO4·H2O, 2 MgSO4·7H2O, 26 NaHCO3, 10 dextrose, and 2 CaCl2)). […]
For recording, slices were placed in a submerged recording chamber (Warner Instruments, Hamden, CT) with oxygenated ACSF heated to 32° C. and flowing at 2-4 ml/min. […] Data were obtained using an Axopatch 1D amplifier (Axon Instruments, Foster City, CA); data were digitized at 10 kHz and recorded using a Digidata 1320A and pClamp 8.2 software (Molecular Devices, Sunnyvale, CA). […] After obtaining a stable voltage-clamp recording from a CA1 interneuron, the recording was switched to current-clamp mode and injected steps of hyperpolarizing and depolarizing current were used to determine the class of cell being recorded using published firing patterns and action potential (AP) properties (Butt et al., 2005; Flames and Marin, 2005). […]

C57BL/6J mice = assay: Novel object recognition (NOR) test (recognition memory); type: in vivo, mouse; conditions: for recognition memory (Novel Object Recognition test): systemic (intraperitoneal) injection, FIG. 11 right; for NOR test performance: 5 mg/kg i.p. 1 h before
Description: In order to acutely deplete the gut microbiota, 15-16 months old SPF males were treated via oral gavage with a mixture of antibiotics (ABX), containing Cefoxitin (Santa Cruz Biotechnology), Gentamicin (Sigma-Aldrich) Metronidazole (Sigma-Aldrich), and Vancomycin (Hikma-pharma), each 10 mg/kg in sterile 1×PBS, for three consecutive days. On the fourth day, the mice were treated with one dose of Clindamycin hydrochloride (33.3 mg/kg) (Sigma-Aldrich). Fecal microbiota transplantations (FMTs) were started 24 h later. To deplete csf1-dependent cells in vivo, including microglia, mice were provided with CSF1R-inhibitor PLX5622 (Plexxicon Inc.) mixed into AIN-76A standard chow at 1200 mg/kg (Research Diets Inc.) ad libitum. Respective controls received AIN-76A standard chow. Mice were injected with 5 mg/kg δ-valerobetaine (MCAT, Germany) 1 h before behavioral testing.
For microbiota depletion studies, SPF mice were treated with 1 mg/ml of ampicillin (Auromedics), neomycin sulfate (Fisher), streptomycin (Sigma) and 0.5 mg/ml of vancomycin (Sagent) in the drinking water for 4-5 weeks (Khosravi et al., 2014). These mice were recolonized via FMT, which was achieved by oral gavage of a faecal slurry. Recipient mice had the food removed from the cage for 2 h prior to FMT. The faecal slurry was obtained by pooling faecal pellets from 8-14 donor mice. The pellets were weighed and resuspended by vortexing for 1 min in 1 mL PBS per 300 mg of faeces. After pelleting larger particles by centrifugation at 500×g for 5 min, the supernatant was collected for FMT. Each recipient mouse received 150 μl of faecal slurry by oral gavage. The remaining slurry was stored at −80° C. for 16S rRNA sequencing. Following FMT, the cages of recipient mice were replenished with dirty bedding and fresh faecal pellets from donor mice once and twice a week, respectively. Faecal pellets for 16S rRNA sequencing were collected the day before FMT and at the end of the experiment and were stored at −80° C. for DNA extraction. For re-colonization of ABX treated mice, FMTs from 8 weeks old or 15-16 months old males were undergone. Fresh fecal pellets are collected under a sterile hood and directly thoroughly homogenized in 0.1% L-Cysteine hydrochloride monohydrate in 1×PBS in order to maintain anaerobic microbes. The homogenates were spun down for 1 min, 200 g at 4° C. and the turbid supernatant was used to orally and rectally gavage the recipient mice. The FMT was performed twice 72 h apart.
NNN-trimethyl-5-aminovalerate was dissolved in 0.9% NaCl and administered i.p. at a dose of 200 mg/kg in a volume of 10 ml/kg. As control the vehicle NaCl was injected.
Mice were tested 40 min after drug- or vehicle injection or 4 weeks after FMT. We first performed the training run for the Novel-object recognition test, followed by the T maze test and then 6 h after the training session mice were tested in the Novel object recognition test. Spatial working memory was tested using the continuous spontaneous alternation task in a T-maze as described previously (Spowart-Manning, L. et al). Briefly, animals were set into the base of a T-maze and allowed to explore a randomly assigned T-maze arm until it returned to the base arm. Subsequently, the blocked arm was opened, and the animal was allowed to explore the complete maze. Once one arm of the T-maze was entered, the other arm was blocked until the animal returned to the base arm. Then, the exit of the base arm was blocked for 5 s and the animal was allowed to explore the maze again. The experiment was stopped after 14 free choice arm entries. Arm entries were scored as alternations if an animal chose the opposing arm compared to the arm visited immediately prior to the scored instance. The Novel Object Recognition (NOR) task was applied to evaluate recognition memory as published previously (Antunes, M. & Biala, G. et al). During the habituation phase, each mouse was allowed to explore two similar objects within a total exploration time of 20 s. […]

C[N+](C)(C)CCCCC(=O)[O-] [NNN-trimethyl-5-aminovalerate, 5-(trimethylammonio) pentanoate]
frequencies of spontaneous IPSCs (spIPSCs) in parvalbumin-positive interneurons [1]: increase
NOR: improvement in learning and memory after FMT from young mice (C57BL/6J mice; old mice (15-16 months) +ABX+yFMT, 5 mg/kg i.p. 1 h before testing, FIG. 10G-H): abolished
recognition memory (Novel Object Recognition test) (C57BL/6J mice; old mice (20-24-month-old)): no additional impairing effects
NOR test performance (C57BL/6J mice; old mice that had received gut microbiota from old mice (old+ABX+oFMT), FIG. 10G-H): no additional deteriorating effect
NOR test performance (C57BL/6J mice; young adult mice (8 weeks), versus vehicle, FIG. 10C-D): significantly worse
recognition memory (Novel Object Recognition test) (C57BL/6J mice; young mice (2-month-old), PBS control): reduced
